Results: patent publication US8802675B2, “Neuroprotective multifunctional compounds and pharmaceutical compositions comprising them” (priority 2009, dated 2014)

Legend:
[1] = target: T1, total cholinesterase (ChE) (Rattus norvegicus, UniProt P37136); experiment: Total cholinesterase inhibition in rat brain homogenates (Ellman); assay type: biochemical
T1 sequence (P37136 32-614): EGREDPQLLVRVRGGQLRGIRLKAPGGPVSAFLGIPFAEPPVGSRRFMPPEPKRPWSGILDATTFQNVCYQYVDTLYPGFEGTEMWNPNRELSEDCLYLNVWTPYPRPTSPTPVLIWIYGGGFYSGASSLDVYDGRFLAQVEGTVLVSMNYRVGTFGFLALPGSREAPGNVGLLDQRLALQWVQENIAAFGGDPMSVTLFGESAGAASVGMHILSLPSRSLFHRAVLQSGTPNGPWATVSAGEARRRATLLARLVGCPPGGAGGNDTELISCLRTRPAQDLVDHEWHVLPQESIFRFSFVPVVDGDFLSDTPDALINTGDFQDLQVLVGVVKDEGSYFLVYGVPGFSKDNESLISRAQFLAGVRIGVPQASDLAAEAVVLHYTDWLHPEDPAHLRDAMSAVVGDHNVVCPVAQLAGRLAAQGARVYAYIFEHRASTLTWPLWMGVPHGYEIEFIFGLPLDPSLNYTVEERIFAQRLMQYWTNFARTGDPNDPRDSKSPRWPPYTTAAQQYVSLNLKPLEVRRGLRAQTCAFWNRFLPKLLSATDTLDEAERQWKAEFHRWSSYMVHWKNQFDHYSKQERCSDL
Description: Cholinesterase activity was determined in rat brain homogenate following incubation with varying concentrations of the multifunctional pro-chelators of the invention (also referred to herein as “carbamates”).
Ellman's colorimetric method was adapted for determination of total cholinesterase (ChE) and butyrylcholinesterase (BuChE) activities in rat brain homogenates. Brain tissue from adult Wistar rats was homogenized at 2% w/v (or 10% w/v, for BuChE) in 0.1 M sodium phosphate buffer, pH 7.4, with added NaCl 58.5 g/l and Triton X-100 0.05% v/v. Aliquots of homogenate (20 μl) were incubated with the test compounds for designed time intervals in phosphate buffer pH 7.4, before addition of 5,5′-dithiobis(2-nitrobenzoic) acid and either 1 mM acetylthiocholine iodide or 10 mM butyrylthiocholine iodide (Sigma, St. Louis, Mo.). The reaction was run at 37° C. in a final volume of […] in 96-well microplates and was followed at 412 nm for 5 min with a plate reader. In every experiment, cholinesterase-independent (nonspecific) substrate hydrolysis was determined by including one experimental group treated with tacrine 30 μM. Appropriate tissue and reagent blanks were also included. Reaction velocities were determined in three or four replicates per condition; these were averaged and expressed as percent activity relative to control (solvent), after subtracting the rate of nonspecific hydrolysis.
The results are the mean SEM, n=3 in triplicates. ND—not determined.

[2] = target: T2, rat brain MAO-A (Rattus norvegicus, UniProt P21396); experiment: biochemical; conditions: for IC50: IC50 MAO-A, rat brain homogenate in vitro, mean SEM, n=3 in triplicates
T2 construct: from tissue; host or cells: rat brain homogenate
T2 sequence (P21396 1-526): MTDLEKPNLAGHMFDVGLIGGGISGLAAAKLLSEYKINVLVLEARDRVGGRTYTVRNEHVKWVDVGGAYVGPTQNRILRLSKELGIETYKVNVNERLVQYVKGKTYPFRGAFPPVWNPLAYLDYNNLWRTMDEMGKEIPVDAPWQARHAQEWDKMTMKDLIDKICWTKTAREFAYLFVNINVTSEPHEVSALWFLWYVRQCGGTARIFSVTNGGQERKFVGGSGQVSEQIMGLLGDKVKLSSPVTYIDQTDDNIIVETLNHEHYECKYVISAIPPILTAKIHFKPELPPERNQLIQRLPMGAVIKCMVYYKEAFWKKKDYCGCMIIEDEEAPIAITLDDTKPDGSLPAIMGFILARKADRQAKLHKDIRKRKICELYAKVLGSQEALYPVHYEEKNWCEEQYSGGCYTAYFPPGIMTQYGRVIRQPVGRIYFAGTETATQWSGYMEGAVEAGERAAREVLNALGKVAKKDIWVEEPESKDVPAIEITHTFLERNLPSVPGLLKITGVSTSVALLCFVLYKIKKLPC
Description: (§1) Rats were decapitated and the brains were quickly taken into a pre-weighted ice-cold sucrose buffer (10 mM Tris-HCl buffer, pH 7.4, containing 0.32 M sucrose), and their weights were measured. The brains were homogenized at 0-4° C. in 0.32 M sucrose (one part tissue to 20 parts sucrose) in a Teflon glass homogenizer. The resultant homogenates were used to determine MAO activity. Protein concentration was determined with Bradford reagent at 595 nm, using bovine serum albumin as a standard.
(§2) The activity of MAO-A and MAO-B were determined by the adapted method of Tipton & Youdim (Tipton et al. 1983). Briefly, the multifunctional compound tested was added to a suitable dilution of the enzyme preparation (70 μg MAO-B and 150 μg MAO-A) in 0.05 M phosphate buffer (pH 7.4). The mixture was incubated together with 0.05 μM 1-deprenyl, a specific inhibitor of MAO-B (for determination of MAO-A activity in the presence of the test compound) or 0.05 μM clorgyline a specific inhibitor of MAO-A (for determination of MAO-B activity). […] The reaction was stopped with 2M ice-cold citric acid, and the radioactive metabolites (5-hydroxytryptaldehyde and phenylacetaldehyde) were extracted by addition of 2 ml of ethylacetate/toluene (1:1 vol/vol). The radioactivity contained in the organic phase was determined by liquid-scintillation counting in cpm units.
(§3) MAO-A and MAO-B activities were determined in rat brain homogenate in vitro following incubation with varying concentrations of the test compounds.
(§4) The results are the mean SEM, n=3 in triplicates.

[3] = target: T3, rat brain MAO-B (Rattus norvegicus, UniProt P19643); experiment: biochemical; conditions: for inhibition at 10 µM: read-out: percent inhibition MAO-B
T3 construct: from tissue; host or cells: rat brain homogenate
T3 sequence (P19643 1-520): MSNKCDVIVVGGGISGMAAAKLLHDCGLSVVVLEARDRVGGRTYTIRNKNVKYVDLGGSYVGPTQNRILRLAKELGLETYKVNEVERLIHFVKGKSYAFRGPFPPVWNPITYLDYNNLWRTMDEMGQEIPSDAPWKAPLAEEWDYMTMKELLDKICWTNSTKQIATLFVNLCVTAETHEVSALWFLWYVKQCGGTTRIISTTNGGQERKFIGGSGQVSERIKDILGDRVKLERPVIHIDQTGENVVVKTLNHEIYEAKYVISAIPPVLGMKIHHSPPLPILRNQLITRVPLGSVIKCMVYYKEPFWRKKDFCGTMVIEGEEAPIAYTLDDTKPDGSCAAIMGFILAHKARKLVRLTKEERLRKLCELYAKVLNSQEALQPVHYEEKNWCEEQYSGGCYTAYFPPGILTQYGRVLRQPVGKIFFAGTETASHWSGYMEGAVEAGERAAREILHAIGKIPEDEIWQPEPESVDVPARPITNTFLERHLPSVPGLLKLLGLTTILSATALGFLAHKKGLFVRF
Description: as §1, §2, §3, §4

[4] = target: T4, rat brain cholinesterase (total ChE) (Rattus norvegicus, UniProt P37136); experiment: Kinetics of irreversible cholinesterase inhibition (Kitz-Wilson); assay type: biochemical
T4 construct: rows headed: Ki (dissociation constant for EI); other: rat brain total ChE; mean of 3-4 experiments; k+2 (carbamylation rate constant); other: from ki; rate of carba
T4 sequence (P37136 32-614): T1 sequence (P37136 32-614)
Description: To determine kinetic constants of irreversible inhibition, cholinesterase from rat brain homogenates was incubated with the multifunctional compounds of the invention for designed time intervals in phosphate buffer pH 7.4.
The residual cholinesterase activity was immediately measured with the Ellman's colorimetric method after addition of 5,5′-dithiobis(2-nitrobenzoic) acid and 1 mM acetylthiocholine iodide. The inhibition kinetics were assessed according to Kitz-Wilson equation:
[formula] wherein: E represents the enzyme; I represents the intact carbamate (inhibitor); EI is the initial reversible enzyme complex; E* is the carbamylated enzyme; Ki represents the dissociation constant for EI; k+2 is the carbamylation rate constant and k+3 is the decarbamylation rate constant; kapp is the pseudo-first-order inhibition rate constant; ki, the second-order rate inhibition constant, is approximated by k+2/Ki. Under experimental condition [I]>>[E0].
According to equation (2), the logarithm of the ratio of the residual cholinesterase activity (E) and the initial cholinesterase activity (E0) is plotted against the time of incubation. The slopes of the lines representing kapp were determined by linear regression.
The slopes of the lines represent the pseudo-first-order inhibition rate constant (kapp) determined from linear regression analysis. […] The carbamylation rate constant (k+2) was obtained from the y-intercept, and the dissociation constant ([…] was obtained from the slope of the line multiplied by k+2 as described in Materials and Methods.
From these lines, the values of kapp were calculated based on Equation (2) of the Kitz-Wilson equations (see Material and Methods). […] The carbamylation rate constant k+2 is a measure of inactivation of ChE.

[5] = test system: human SH-SY5Y neuroblastoma cells; experiment: MTT cell viability assay in SH-SY5Y cells; assay type: cell-based; conditions: MTT after 48 h incubation
Description: Cell culture. Human neuroblastoma SH-SY5Y cells were obtained from American Type Culture Collection (Rockville, Md., USA). Cells were routinely cultured in MEM-Eagle/F-12(HAM) (1:1), containing 10% FCS and a mixture of 2% sodium bicarbonate, 1% penicillin/streptomycin/nystatin and 1% sodium pyruvate. Cell cultures were incubated at 37° C. in a humid 5% CO2-95% air environment.
Twenty-four hours after attachment of the SH-SY5Y cells, the medium was replaced with DMEM containing 0.1% BSA. The test compounds were added to the cells after 1 h of incubation. After 24 h incubation, the cells were subjected to MTT test as previously described (Gassen et al., 1998). The absorption was determined in a Perkin-Elmer Dual Wavelength Eliza-Reader at λ=570/650 nm after automatic subtraction of background readings. The results are expressed as percentage of the untreated control.
The effect of the iron chelators M30 and HLA20 versus that of the pro-chelators 13 and 23, on viability of human SH-SY5Y cells was tested. Human SH-SY5Y neuroblastoma cells were plated in 100-mm culture dishes and cultured in DMEM (4,500 mg/l glucose), containing 10% FCS (fetal calf serum, Bet Haemek, Israel), and 1% of a mixture of penicillin/streptomycin/nystatin. When cells reached the required confluence, they were detached and re-cultured in microtiter plates (96 wells) pre-coated with collagen ([…]), in DMEM with 10% of fetal calf serum (0.5×10^4 cells/well). Cell viability was tested by the 3-(4,5-dimethylthiazol-2-yl)-2,5-diphenyltetrazolium (MTT) assays after 48 h incubation.

[6] = Metal chelation assay (UV-vis spectra of metal complexes); assay type: physicochemical; conditions: ZnCl2, CuSO4, FeCl3 and FeSO4; 5% NH4Ac, pH=7
Text: Metal chelation, particularly iron chelation, is an important precondition for the antioxidative-function of the multi-functional compounds of the invention, because it is the excessive iron stores and iron-mediated generation of free radicals in the brain that are thought to be associated with neurodegenerative diseases. The novel strategy, according to the present invention, for the treatment of neurodegenerative diseases such as Alzheimer's disease is the design of pro-chelators that inhibit AChE with a concomitant release of the active chelators. This novel strategy has advantages over the current chelator strategy since it is capable not only of minimizing the potential toxicity associated with strong chelators such as the 8-hydroxyquinoline derivatives disclosed in WO 2004/041151, which might interfere with healthy metal metabolism in the brain, but it also offers multiple activities against AChE, Aβ aggregation, oxidative stress, and metal (Fe, Cu, Zn) dyshomeostasis in the brain. Therefore, a metal chelation assay was used to confirm that the new multifunctional pro-chelators that comprise an N,N-dialkylcarbamoyl moiety [N(RR′)CO—] linked to the oxygen at position 8 of quinoline would have little to no affinity for metal ions in their pro-drug form. When these pro-chelators bind to cholinesterase or AChE in the brain, the N,N-dialkylcarbamoyl moiety is dissociated, thus unmasking a free hydroxyl group at said position 8 of quinoline, turning the pro-chelators into active chelators, which passivate excess cerebral metal ions and protect neuronal cells against reactive oxygen species (ROS).
A spectrophotometric method was used for measurement of metal complexes of the multifunctional pro-chelators of the invention with metal ions selected from Zn^2+, Cu^2+, Fe^3+ and Fe^2+, and compared to the respective metal complexes of some known iron chelators disclosed in WO 2004/041151.
Thus, the metal chelating function of compound 13 and compound 23 as compared to M30 and HLA20, respectively, was measured by dissolving 0.1 mM or 0.2 mM of the test compounds in 5% NH4Ac, pH=7, in the presence and absence of 0.1 mM or 0.2 mM of the metal salts […], CuSO4, FeCl3 and FeSO4, and measuring the UV-vis spectra (Hewlett-Packard 8450A diode array spectrophotometer) of the various metal complexes formed. The results for M30 and compound 13 are shown in FIGS. 1A and 1B, respectively.

[7] = test system: ChE from rat brain homogenates; experiment: Time course of total ChE inhibition at 1 μM versus rivastigmine; assay type: biochemical; conditions: 1 μM, time course
Description: The new carbamates of the present invention are expected to act as rivastigmine and inhibit ChE activity. […] Enzyme activity was determined with Ellman's colorimetric method after addition of substrate, and the results are shown in FIGS. 8A-8B.

SMILES | inhibition at 50 µM ([1]; read-out: percent inhibition Total ChE) [%] | IC50 [2] [nM] | inhibition at 10 µM [3] [%] | potency in inhibiting ChE relative to rivastigmine ([4]; from ki) | kinact/KI ([4]; pH 7.4, read-out: ki (second-order rate inhibition constant, approximated by k+2/Ki)) [M⁻¹ s⁻¹] | cell viability ([5]; 10 μM) [%] | cell viability ([5]; 25 μM) [%] | cell viability ([5]; 50 μM) | inhibitory effect on MAO-A ([2]; rat brain homogenate) | inhibitory effect on MAO-B ([3]; rat brain homogenate) | binding of metal ions (shift of absorbance peak) [6] | IC50 ([1]; rat brain homogenates, mean SEM, n=3 in triplicates) [nM] | ChE inhibition compared with rivastigmine and other carbamates [7]
C#CCN(C)Cc1ccc(OC(=O)NCCCCCC)c2ncccc12 [Compound 4, 5-((methyl(propargyl)amino)methyl)quinolin-8-yl hexylcarbamate] | 43 | < 100 | 25 | half potent | 39 |  |  |  |  |  |  |  | 
C#CCN1CCN(Cc2ccc(O)c3ncccc23)CC1 [HLA20, reference compound] |  |  |  |  |  | ≤ 75 | ≤ 75 | almost all the cells died | minor to none inhibitory effects | minor to none inhibitory effects | binds the respective metal ions |  | 
C#CCN(C)Cc1ccc(OC(=O)N(C)C)c2ncccc12 [Compound 2, 5-((methyl(propargyl)amino)methyl)quinolin-8-yl dimethylcarbamate] |  | < 100 | 67 |  |  |  |  |  |  |  |  | 520 | more potent than
